Test results taken from PubChem BioAssay (NCI).
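96-well plates; 48 h exposure; 5 concentrations. Endpoints by linear interpolation between flanking doses. Not reached: highest tested concentration assigned. The concentration for 50% growth inhibition is given as GI50. TGI marks complete inhibition of growth.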 Where a SMILES comes first, the peptide text is derived from it. The star is where a group is joined. Palmitoyl = CCCCCCCCCCCCCCCC(=O)*

How the values were obtained:
Assay in all cases: NCI-60 cell line screen, 48 h
[1] = tested on: EKVX NSCLC
[2] = tested on: HT29 colon
[3] = tested on: HCT-15 colon
[4] = tested on: SK-MEL-2 melanoma
[5] = tested on: NCI-H23 lung
[6] = tested on: SW-620 colon
[7] = tested on: UACC-62 melanoma
[8] = tested on: IGROV1 ovarian
[9] = tested on: COLO 205 colon
[10] = tested on: SK-OV-3 ovarian

| Structure (SMILES) | TGI [1] | TGI [2] | TGI [3] | TGI [4] | TGI [5] | TGI [6] | TGI [7] | TGI [8] | TGI [9] | GI50 [1] | GI50 [2] | GI50 [3] | GI50 [4] | GI50 [5] | GI50 [6] | GI50 [10] | TGI [10] | GI50 [9] | GI50 [8] | GI50 [7] |
| --- | --- | --- | --- | --- | --- | --- | --- | --- | --- | --- | --- | --- | --- | --- | --- | --- | --- | --- | --- | --- |
| O[C@@]12Cc3c([nH]c4ccccc34)[C@@H]3Oc4cccc5c4[C@@]31CCN(CC1CC1)[C@@H]2C5 | 47.6 µM | 29.8 µM | 32.6 µM | 41.5 µM | 55.6 µM | 25.7 µM | 32.3 µM | 45.4 µM | 49.8 µM | – | – | – | – | – | – | – | – | – | – | – |
| C/C(=N/N=C(\[O-])c1ccncc1)C(F)(F)F.C/C(=N\N=C(/[O-])c1ccncc1)C(F)(F)F.[Ni+2] | > 1 µM | > 1 µM | > 1 µM | – | > 1 µM | > 1 µM | – | – | > 1 µM | > 1 µM | > 1 µM | > 1 µM | > 1 µM | > 1 µM | > 1 µM | 0.00156 µM | 0.005 µM | > 1 µM | – | – |
| CCCCCCCCCCCCCCCC(=O)N1CCCC1C(=O)NCC(=O)NC(Cc1ccccc1)C(=O)NC(C)C(=O)NC(CO)C(=O)NC(Cc1ccc(O)cc1)C(=O)NC(CCCCN)C(=O)NC(CC(C)C)C(=O)NC(CCCN=C(N)N)C(=O)N1CCCC1C(=O)NCC(N)=O (stereo unspecified) (Palmitoyl-PGFASYKLRPG-NH2; configuration not given here) | 52.1 µM | 30.5 µM | – | > 100 µM | 58.9 µM | > 100 µM | – | 46.1 µM | 22.8 µM | 20.1 µM | 16.8 µM | – | 34.6 µM | 23.6 µM | 37.5 µM | 12.8 µM | 28.7 µM | 10.9 µM | 20.1 µM | – |
| C=C(C)C1Cc2c(c3ccccc3n(C)c2=O)O1 (stereo unspecified) | > 100 µM | > 100 µM | > 100 µM | > 100 µM | > 100 µM | > 100 µM | > 100 µM | > 100 µM | > 100 µM | – | – | – | – | – | – | – | > 100 µM | – | – | – |
| c1ccc(-c2nc(N3CCNCC3)c3oc(-c4ccccc4)nc3n2)cc1 | – | – | 3.51 µM | 5.42 µM | 3.39 µM | 2.94 µM | 3.11 µM | 3.22 µM | 4.88 µM | – | – | 1.8 µM | 2.31 µM | 1.76 µM | 1.35 µM | 1.88 µM | 3.8 µM | 2.14 µM | 1.69 µM | 1.72 µM |
| CC(C)C(C(=O)O)N1C(=O)c2ccccc2C1=O (stereo unspecified) | > 100 µM | > 100 µM | > 100 µM | 0.612 µM | > 100 µM | > 100 µM | > 100 µM | > 100 µM | > 100 µM | – | – | – | – | – | – | – | > 100 µM | – | – | – |
